One data set deals with RCAd11pGFP vector. Kind of data set: Screening assay: GFP expression from RCAd11pGFP vector in K562 cells. In kind it is cell-based. As to conditions: Human adenovirus sp., K562, 24 h, read-out: 50% inhibitory concentration (IC50), inhibition of GFP expression. The text has this: The screening assay is based on GFP expression from the RCAd11pGFP vector in a K562 cell system. […] To be considered as a potential hit, the compound had to decrease the intensity of fluorescence by more than 80% and kill no more than 50% of the cells. […] None of the compounds selected for further study were autofluorescent.
To verify the hits and to exclude false positives, the compounds were serially diluted in 7 steps for dose-response analysis using the screening assay. […] Twenty-four compounds met these criteria. The distribution of fluorescence inhibition and cellular toxicity detected in the screening process of these 24 hits is summarized in FIG. 1. One of the most efficient and least toxic compounds was A02, 2-[[2-(benzoylamino)benzoyl]amino]-benzoic acid. This compound was evaluated further as a potential drug candidate.

A further data set deals with Ad11p. Kind of data set: Quantitative real-time PCR of adenovirus DNA replication in A549 cells (Ad11p). In kind it is cell-based, human adenovirus. Here is the method:
Approximately 1×10^5 A549 cells were seeded in 24-well plates (Nunc) on the day before infection. On the day of infection, the cells in one well were counted to establish the amount of virions to be added. The growth medium was removed and compound and virus were added simultaneously to the cells in 700 μl DMEM with 0.75 g/l NaHCO3, 20 mM HEPES, 1×PEST, and 1% FBS. Compounds were added in concentrations ranging from 0.5 μM to 15 μM. The final concentration of DMSO was less than 1% in all samples. One pg of Ad virions was added per cell. The plate was incubated at 37° C. in 5% CO2 and 24 h after infection the cells were harvested, washed once, and resuspended in PBS. DNA was prepared from the samples using the QIAamp DNA Blood Mini Kit (QIAGEN, Solna, Sweden) according to the manufacturer's instructions. The design of primers and probes for analysis of various Ad types representing different adenovirus species with quantitative PCR has been described previously (Allard et al. 2001. Rapid typing of human adenoviruses by a general PCR combined with restriction endonuclease analysis. Journal Clinical Microbiology 39:498-505). Briefly, quantitative real-time PCR was carried out using a degenerate primer pair, Kadgen1 (forward)—Kadgen 2 (reverse) (5′-CWT ACA TGC ACA TCK CSG G-3′—SEQ ID NO:1, and 5′-CRC GGG CRA AYT GCA CCA G-3′—SEQ ID NO:2, respectively); DNA technology A/S, Aarhus, Denmark). This primer pair is specific for the conserved region of the Ad hexon gene and can detect all human Ads. Different FAM-TAMRA probes were used to quantitate Ads from different species: AdB1B2 (5′-6-FAM-AGGATGCTTCGGAGTACCTGAGTCCGG-TAMRA-3′—SEQ ID NO:3) for Ad11p (11) and AdC (5′-6-FAM-AGGACGCCTCGGAGTACCTGAGCCCCG-TAMRA-3′—SEQ ID NO:4) for Ad 5 (all from Applied Biosystems, Cheshire, UK). For Ads from species A, D, E and F the probe AdDF (5′-6-FAM-CCGGGCTCAGGTACTCCGAGGCGTCCT-3′—SEQ ID NO:5) was used (Applied Biosystems). Standard curves ranging from 5 to 5×10^5 genome copies were generated by serial dilution of known amounts of full-length Ad5 or Ad11 DNA. The Ad5 DNA standard was used for the AdDF probe system. […] The program for the real-time PCR was: 2 min at 50° C. to activate UNG, followed by amplification and quantitation (10 min at 95° C. and 40 cycles of 15 sec at 95° C., 1 min at 60° C.). […] Real-time PCR was performed in an ABI PRISM 7700 Sequence Detector (Applied Biosystems) and analyzed with Sequence Detector v1.7a software.

Another data set relates to cells. The data set can be described thus: Cellular toxicity of select compounds (% dead cells, CC50). The format is cell-based. As to conditions: 24 h.
The next data set addresses T1, Tn5 transponase (Escherichia coli, UniProt Q46731).
T1 sequence (Q46731 1-476): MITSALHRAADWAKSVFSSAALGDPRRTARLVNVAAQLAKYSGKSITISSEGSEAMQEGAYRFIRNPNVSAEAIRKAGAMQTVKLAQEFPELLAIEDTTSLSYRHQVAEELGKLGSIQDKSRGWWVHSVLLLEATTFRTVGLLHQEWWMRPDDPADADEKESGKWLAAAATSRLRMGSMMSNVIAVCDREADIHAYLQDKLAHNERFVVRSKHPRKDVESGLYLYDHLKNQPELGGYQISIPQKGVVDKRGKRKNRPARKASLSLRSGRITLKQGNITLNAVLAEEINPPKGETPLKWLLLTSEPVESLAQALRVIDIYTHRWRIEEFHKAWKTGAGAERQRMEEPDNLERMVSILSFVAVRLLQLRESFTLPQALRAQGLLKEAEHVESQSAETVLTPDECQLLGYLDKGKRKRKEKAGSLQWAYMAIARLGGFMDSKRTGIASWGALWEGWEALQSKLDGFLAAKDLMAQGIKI
As to conditions: US 2006/0035245; cited from earlier work.

A further data set concerns Ad31 (A). Kind of data set: Quantitative real-time PCR of adenovirus DNA replication in A549 cells (Ad31). The format is cell-based. As to conditions: Human adenovirus sp., read-out: % inhibition of DNA replication (SD). As to the method:
Approximately 1×10^5 A549 cells were seeded in 24-well plates (Nunc) on the day before infection. On the day of infection, the cells in one well were counted to establish the amount of virions to be added. The growth medium was removed and compound and virus were added simultaneously to the cells in 700 μl DMEM with 0.75 g/l NaHCO3, 20 mM HEPES, 1×PEST, and 1% FBS. Compounds were added in concentrations ranging from 0.5 μM to 15 μM. The final concentration of DMSO was less than 1% in all samples. One pg of Ad virions was added per cell. The plate was incubated at 37° C. in 5% CO2 and 24 h after infection the cells were harvested, washed once, and resuspended in PBS. […] The design of primers and probes for analysis of various Ad types representing different adenovirus species with quantitative PCR has been described previously (Allard et al. 2001. Rapid typing of human adenoviruses by a general PCR combined with restriction endonuclease analysis. Journal Clinical Microbiology 39:498-505). Briefly, quantitative real-time PCR was carried out using a degenerate primer pair, Kadgen1 (forward)—Kadgen 2 (reverse) (5′-CWT ACA TGC ACA TCK CSG G-3′—SEQ ID NO:1, and 5′-CRC GGG CRA AYT GCA CCA G-3′—SEQ ID NO:2, respectively); DNA technology A/S, Aarhus, Denmark). […] Real-time PCR was performed in an ABI PRISM 7700 Sequence Detector (Applied Biosystems) and analyzed with Sequence Detector v1.7a software.
On the technique in general: Quantitative PCR measures a nucleic acid by following its amplification.

pIC50: −log10 of the molar value.

Usually inhibition stands for the drop in the measured response relative to a control, in per cent. Take `O=C(Nc1ccccc1C(=O)Nc1ccccc1C(=O)O)c1ccccc1` [Compound A02, 2-[[2-(Benzoylamino)benzoyl]amino]-benzoic acid]: the pIC50 was 4.54 in the data set on RCAd11pGFP vector and 5.54 with Ad11p (Human adenovirus sp., 24 h, read-out: IC50 for Ad11p replication (QPCR)). Besides, in the data set on Ad11p, the “selectivity index (SI=CC50/IC50) for Ad11p” value turned out to be 68. For the same compound, the inhibition at 5 µM came to 79% in the data set on Ad11p (Human adenovirus sp., Ad11p (B2), 5 μM, read-out: % inhibition of DNA replication (SD)) and 86% with Ad31 (A) (5 μM). The inhibition at 15 µM with Ad11p (Human adenovirus sp., Ad11p (B2), 15 μM, read-out: % inhibition of DNA replication (SD)) worked out at 79%; in the data set with Ad31 (A) (15 μM) it was 98%. Also, the “Toxicity at 30 μM (% dead cells after 24 h)” value in the data set with cells (30 μM) was determined as 20 ± 7%. Further, in the data set with cells (60 μM), the “Toxicity at 60 μM (% dead cells after 24 h)” value is reported as 29 ± 3%. In addition, the “inhibition of Tn5 transponase” value at Tn5 transponase is “found to inhibit”.

(Values after patent US8993622B2, “Antiviral compounds” (Eirium AB, priority 2010, dated 2015).)
